B1: soybean trypsin inhibitor: reversible serine protease inhibitor, macromolecular inhibitor (protein, UniProt P01070 25-205, looked up)
Trypsin inhibitor A: DFVLDNEGNPLENGGTYYILSDITAFGGIRAAPTGNERCPLTVVQSRNELDKGIGTIISSPYRIRFIAEGHPLSLKFDSFAVIMLCVGIPTEWSVVEDLPEGPAVKIGENKDAMDGWFRLERVSDDEFNNYKLVFCPQQAEDDKCGDIGISIDHDDGTRRLVVSKNKPLVVQFQKLDKESL

Legend:
RNK-16 chymase [1] = assay: Inactivation of RNK-16 granule chymase activity; format: biochemical; conditions: granule protease activity
RNK-16 cells = assay: Cell labeling and confocal imaging of NK line RNK-16; format: cell-based; conditions: live RNK-16 cells, 0.1 mM inhibitor, 30 minutes, 37° C., confocal microscopy
Protocol: Cell Labeling and Imaging. Cells of the NK line RNK-16 were labeled as live cells, washed, treated with methanol as a fixative and permeabilizing agent, and then examined by confocal microscopy. The cells were treated at 1×10^7 cells/mL in RPMI 1640 culture media (Sigma Chemical Co., St. Louis, Mo.) containing 10 mM Hepes with 0.1 mM FTC-Aca-Ala-Ala-Met^P (OPh)2 for 30 minutes at 37° C. Control cells were treated with the same volume of DMSO required to deliver the inhibitor (typically 1% final concentration). Cells were then washed several times with phosphate buffered saline (PBS) to remove excess inhibitor. They were suspended overnight in cold 80% methanol to permeabilize the membrane. The cells were washed free of MeOH into PBS and fixed onto poly-L-lysine (Sigma) coated microscope slides using 3% paraformaldehyde. Fixed slides were washed in PBS, coated with Vectashield (Vector Laboratories, Inc., Burlingame, Ca.) to prevent fluorescence fading and topped with a coverslip. Fluorescent laser scanning confocal microscopy was done with a Bio-Rad MRC 600 confocal system utilizing a Zeiss Axiophot microscope and equipped with a mixed-gas argon/krypton ion laser using 488 nm excitation for fluorescein.

[2] = target: T1, porcine pancreatic elastase (PPE) (Sus scrofa, UniProt P00772); assay: Inactivation of PPE, incubation method; format: biochemical; conditions: 0.1 M Hepes, 0.5 M NaCl, pH 7.5, 5-10% Me2SO, 25° C.; NI = no inhibition after 40 min of incubation
T1 construct: purchased United States Biochemical Corp., Cleveland, Ohio
Protocol: (§1) Inactivation rates of serine proteases by fluorescent peptidylphosphonates were measured by the incubation method. In each case the inactivation experiment was preceded by an enzyme assay in which the hydrolysis of peptide p-nitroanilide substrates, catalyzed by chymotrypsin, PPE, HLE, and trypsin was measured in 0.1M Hepes and 0.5M NaCl (0.01M CaCl2 for trypsin), pH 7.5 buffer containing 5-10% Me2 SO at 25° C. Stock solutions of substrates were prepared in Me2 SO (20 mM) and stored at -20° C. Final substrate concentrations were 0.24 mM. Chymotrypsin activity was assayed with Suc-Val-Pro-Phe-NA. PPE was assayed with Suc-Ala-Ala-Ala-NA. HLE was assayed with MeO-Suc-Ala-Ala-Pro-Val-NA and trypsin was assayed with Z-Arg-NA. The initial rates of hydrolysis were measured at 410 nm (ε410 =8800 M^-1 cm^-1) on a Beckman 35 spectrophotometer after 25-50 μL of an enzyme stock solution was added to a cuvette containing 2.0 mL of buffer and 25 μL of substrate.
(§2) Each inhibition reaction was initiated by adding a 50 μL aliquot of inhibitor (100-5000 μM in Me2 SO) to 0.5 mL of a 0.1M Hepes, 0.5M NaCl (0.01M CaCl2 for trypsin), pH 7.5 buffer containing 50 μL of a stock enzyme solution at 25° C. The enzyme stock solutions were 20 μM chymotrypsin, trypsin, and PPE in 1 mM HCl (pH 3), and 0.4-4 μM HLE in 0.25M NaAc and 1M NaCl at pH 5.5. All the enzyme stock solutions were stored at -20° C. prior to use. Aliquots (25 μL) were withdrawn at various intervals and the residual enzymatic activity was measured spectrophotometrically as described above. Pseudo first-order inactivation rate constants (kobsd) were obtained from plots of ln vt /vo vs time and had correlation coefficients greater than 0.98. Each kobsd was calculated from 5-10 activity determinations which extended to 2-3 half lives. Control experiments were carried out in the same way as described above except Me2 SO was added in place of the inhibitor solution in Me2 SO. […] These initial rates were used as vo in the calculation of the inhibition rate constants.

chymotrypsin = chymotrypsin (Bos taurus, UniProt P00766); assay: Inactivation of chymotrypsin, incubation method; format: biochemical, bovine; conditions: for kobsd /(I) Chymotrypsin: 0.1 M Hepes, 0.5 M NaCl, pH 7.5, 5-10% Me2SO, 25° C., NI = no inhibition after 40 min of incubation
Protocol: as §1, §2

[3] = target: T2, human leukocyte elastase (HLE) (Homo sapiens, UniProt P08246); assay: Inactivation of HLE, incubation method; format: biochemical; conditions: 0.1 M Hepes, 0.5 M NaCl, pH 7.5, 5-10% Me2SO, 25° C.; NI = no inhibition after 40 min of incubation
T2 construct: purchased Athens Research and Technology, Inc., Athens, Ga
T2 sequence (P08246 30-267): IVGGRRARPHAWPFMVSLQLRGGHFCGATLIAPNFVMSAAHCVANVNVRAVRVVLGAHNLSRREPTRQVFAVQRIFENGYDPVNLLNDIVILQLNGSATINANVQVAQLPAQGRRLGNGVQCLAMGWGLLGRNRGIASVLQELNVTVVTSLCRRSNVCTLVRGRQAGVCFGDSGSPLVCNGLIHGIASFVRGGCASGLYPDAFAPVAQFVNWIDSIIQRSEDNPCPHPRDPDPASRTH
Protocol: as §1, §2

Asp-ase granule protease = target: T3, Asp-ase granule protease (Rattus norvegicus, UniProt P18291); assay: Inactivation of RNK-16 granule Asp-ase activity; format: biochemical; conditions: RNK-16 granule protease activity
T3 construct: endogenous in cells; host or cells: RNK-16
T3 sequence (P18291 21-248): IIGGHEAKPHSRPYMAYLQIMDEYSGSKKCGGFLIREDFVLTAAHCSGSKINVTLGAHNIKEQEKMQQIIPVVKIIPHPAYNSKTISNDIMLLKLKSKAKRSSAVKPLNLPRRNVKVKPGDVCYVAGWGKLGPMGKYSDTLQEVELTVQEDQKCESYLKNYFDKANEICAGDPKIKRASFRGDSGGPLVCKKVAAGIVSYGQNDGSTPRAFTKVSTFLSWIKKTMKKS

[4] = tested on: tryptase granule protease; assay: Inactivation of RNK-16 granule tryptase activity; format: biochemical; conditions: RNK-16 granule protease activity
RNK-16 chymase [5] = conditions: previous approach, comparison; cited from earlier work
[6] = tested on: tryptase granule protease; conditions: previous approach, comparison; cited from earlier work

T1 sequence (P00772 27-266): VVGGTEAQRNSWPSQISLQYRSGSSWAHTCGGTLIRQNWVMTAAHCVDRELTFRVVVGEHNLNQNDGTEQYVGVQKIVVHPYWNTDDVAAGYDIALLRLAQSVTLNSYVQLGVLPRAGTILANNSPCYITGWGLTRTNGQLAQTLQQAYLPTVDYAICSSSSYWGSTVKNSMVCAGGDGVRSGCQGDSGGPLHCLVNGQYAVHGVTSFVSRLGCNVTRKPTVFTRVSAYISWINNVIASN

Molecule | kobsd /(I) PPE [2] | kobsd /(I) Chymotrypsin (chymotrypsin) | kobsd /(I) HLE [3] | further results
CSCCC(NC(=O)[C@H](C)NC(=O)[C@H](C)NC(=O)CCCCCNC(=S)Nc1ccc2c(c1)C(=O)OC21c2ccc(O)cc2Oc2cc(O)ccc21)P(=O)(Oc1ccccc1)Oc1ccccc1 (stereo partly drawn) [Compound 1, Diphenyl 1-(6-(5-Fluoresceinylthiocarbamoylamino)caproylalanylalanylamino)-3-(methylthio)propanephosphonate] | 13 M⁻¹ s⁻¹ | 190 M⁻¹ s⁻¹ | 22 M⁻¹ s⁻¹ | inactivation of RNK-16 chymase (RNK-16 chymase [1]): inactivated; fluorescent labeling of cells (RNK-16 cells): reacted with distinct, granule-like regions; inactivation of Asp-ase granule protease activity (Asp-ase granule protease): little; inactivation of tryptase granule protease activity [4]: little
CC(NC(=O)[C@H](C)NC(=O)[C@H](C)NC(=O)CCCCCNC(=S)Nc1ccc2c(c1)C(=O)OC21c2ccc(O)cc2Oc2cc(O)ccc21)P(=O)(Oc1ccccc1)Oc1ccccc1 (stereo partly drawn) [Compound 2, Diphenyl 1-(6-(5-Fluoresceinylthiocarbamoylamino)caproylalanylalanylamino) ethanephosphonate] | 22 M⁻¹ s⁻¹ | – | – | –
CC(C)C[C@H](NC(=O)[C@H](Cc1ccccc1)NC(=O)CCCCCNC(=S)Nc1ccc2c(c1)C(=O)OC21c2ccc(O)cc2Oc2cc(O)ccc21)C(=O)NC(Cc1ccccc1)P(=O)(Oc1ccccc1)Oc1ccccc1 (stereo partly drawn) [Compound 3, Diphenyl 1-(6-(5-Fluoresceinylthiocarbamoylamino)caproylphenylalanylleucylamino)-2-phenylethanephosphonate] | 16 M⁻¹ s⁻¹ | – | – | times faster inhibition of chymotrypsin than of HLE (chymotrypsin; ratio of kobsd/(I) chymotrypsin to HLE): 600
CSCCC(NC(=O)[C@H](C)NC(=O)[C@H](C)NC(=O)OC(C)(C)C)P(=O)(Oc1ccccc1)Oc1ccccc1 (stereo partly drawn) [Compound 5, Boc-Ala-Ala-Met^P (OPh)2, reference compound] | 3 M⁻¹ s⁻¹ | 3 M⁻¹ s⁻¹ | 2 M⁻¹ s⁻¹ | –
CC(NC(=O)[C@H](C)NC(=O)[C@H](C)NC(=O)OCc1ccccc1)P(=O)(Oc1ccccc1)Oc1ccccc1 (stereo partly drawn) [Compound 6, Z-Ala-Ala-Ala^P (OPh)2, reference compound] | 30 M⁻¹ s⁻¹ | – | – | –
CC(C)C[C@H](NC(=O)[C@H](Cc1ccccc1)NC(=O)OCc1ccccc1)C(=O)NC(Cc1ccccc1)P(=O)(Oc1ccccc1)Oc1ccccc1 (stereo partly drawn) [Compound 7, Z-Phe-Leu-Phe^P (OPh)2, reference compound] | – | 110 M⁻¹ s⁻¹ | 27 M⁻¹ s⁻¹ | –
Diphenyl 1-(6-(4(or 2)(9-(2,3,6,7,12,13,16,17-octahydro-1H,5H,11H,15H-xantheno(2,3,4-ij:5,6,7- i'j')diquinolizinyl-18-ium))3(or 5)sulfo-1-phenylsulfonamido)caproylphenylalanylleucylamino)-2-phenylethanephosphonate, Hydroxide, Inner Salt [Compound 4] | 11 M⁻¹ s⁻¹ | 15 M⁻¹ s⁻¹ | 96 M⁻¹ s⁻¹ | –
B1 | – | – | – | inactivation of chymases of cytotoxic lymphocytes (RNK-16 chymase [5]): inactivated; inactivation of tryptases of cytotoxic lymphocytes [6]: inactivated

Source: patent US5681821A, “Fluorescent 1-peptidylaminoalkanephosphonate derivatives” (Georgia Tech Research Corp., priority 1994, dated 1997)
